Key:
[1] = molecular target: Non-receptor tyrosine-protein kinase TYK2 (Homo sapiens) (UniProt P29597); experiment: Inhibition of TYK2 (unknown origin) at 1 uM
[2] = molecular target: Aurora kinase B (Homo sapiens) (UniProt Q96GD4); experiment: Inhibition of AuroraB (unknown origin) at 1 uM
[3] = molecular target: SRSF protein kinase 2 (Homo sapiens) (UniProt P78362); experiment: Inhibition of SRPK2 (unknown origin) at 1 uM
[4] = molecular target: Homeodomain-interacting protein kinase 2 (Homo sapiens) (UniProt Q9H2X6); experiment: Inhibition of HIPK2 (unknown origin) at 1 uM
[5] = molecular target: Serine/threonine-protein kinase Nek6 (Homo sapiens) (UniProt Q9HC98); experiment: Inhibition of NEK6 (unknown origin) at 1 uM
[6] = molecular target: Proto-oncogene tyrosine-protein kinase receptor Ret (Homo sapiens) (UniProt P07949); experiment: Inhibition of Ret (unknown origin) at 1 uM
[7] = Cytotoxicity against human T cells assessed as cell proliferation
Salmonella typhimurium [8] = experiment: Genotoxicity in Salmonella typhimurium TA100 by Ames test in presence of S9 fraction; type: toxicity, organism-based; conditions: salmonella enterica subsp. enterica serovar typhimurium
[9] = molecular target: Vascular endothelial growth factor receptor 3 (Homo sapiens) (UniProt P35916); experiment: Inhibition of Flt4 (unknown origin) at 1 uM
[10] = molecular target: Ribosomal protein S6 kinase alpha-3 (Homo sapiens) (UniProt P51812); experiment: Inhibition of Rsk2 (unknown origin) at 1 uM
Salmonella typhimurium [11] = experiment: Genotoxicity in Salmonella typhimurium TA98 by Ames test in absence of S9 fraction; type: toxicity, organism-based; conditions: salmonella enterica subsp. enterica serovar typhimurium
[12] = molecular target: Tyrosine-protein kinase FRK (Homo sapiens) (UniProt P42685); experiment: Inhibition of Frk (unknown origin) at 1 uM
[13] = molecular target: Protein kinase C theta type (Homo sapiens) (UniProt Q04759); experiment: Inhibition of PKCtheta (unknown origin) at 1 uM
[14] = molecular target: Vascular endothelial growth factor receptor 2 (Homo sapiens) (UniProt P35968); experiment: Inhibition of KDR (unknown origin) at 1 uM
[15] = molecular target: Serine/threonine-protein kinase PLK2 (Homo sapiens) (UniProt Q9NYY3); experiment: Inhibition of PLK2 (unknown origin) at 1 uM
[16] = molecular target: Inhibitor of nuclear factor kappa-B kinase subunit alpha (Homo sapiens) (UniProt O15111); experiment: Inhibition of IKK alpha (unknown origin) at 1 uM
[17] = molecular target: Tyrosine-protein kinase SYK (Homo sapiens) (UniProt P43405); experiment: Inhibition of Syk (unknown origin) at 1 uM
[18] = molecular target: Maternal embryonic leucine zipper kinase (Homo sapiens, UniProt Q14680); experiment: Inhibition of MELK (unknown origin)
[19] = molecular target: Serine/threonine-protein kinase DCLK2 (Homo sapiens) (UniProt Q8N568); experiment: Inhibition of DCAMKL2 (unknown origin) at 1 uM
[20] = molecular target: Ephrin type-A receptor 2 (Homo sapiens) (UniProt P29317); experiment: Inhibition of EphA2 (unknown origin) at 1 uM
[21] = molecular target: Protein kinase C epsilon type (Homo sapiens) (UniProt Q02156); experiment: Inhibition of PKCepsilon (unknown origin) at 1 uM
[22] = Oral bioavailability in dog at 5 mg/kg by LC-MS/MS analysis; type: ADME, organism-based, Canis lupus familiaris; conditions: in vivo
[23] = molecular target: Serine/threonine-protein kinase 26 (Homo sapiens) (UniProt Q9P289); experiment: Inhibition of MST4 (unknown origin) at 1 uM
[24] = molecular target: TGF-beta-activated kinase 1 and MAP3K7-binding protein 1 (Homo sapiens) (UniProt Q15750); experiment: Inhibition of TAK1-TAB1 (unknown origin) at 1 uM
[25] = molecular target: Interleukin-1 receptor-associated kinase 4 (Homo sapiens) (UniProt Q9NWZ3); experiment: Inhibition of IRAK4 (unknown origin) at 1 uM
Liver microsome = experiment: Intrinsic clearance in human liver microsomes at 1 uM by LC-MS/MS analysis in absence of NADPH; type: ADME
[26] = molecular target: Dual specificity protein kinase CLK4 (Homo sapiens) (UniProt Q9HAZ1); experiment: Inhibition of CLK4 (unknown origin) at 1 uM
[27] = molecular target: High affinity nerve growth factor receptor (Homo sapiens) (UniProt P04629); experiment: Inhibition of TrkA (unknown origin) at 1 uM
[28] = molecular target: Tyrosine-protein kinase ABL1 (Homo sapiens) (UniProt P00519); experiment: Inhibition of Abl (unknown origin) at 1 uM
[29] = molecular target: CDK2/Cyclin A2 (Homo sapiens) (UniProt P24941+P20248); experiment: Inhibition of CDK2/cyclinA (unknown origin) at 1 uM; type: protein-complex assay
[30] = molecular target: Receptor-interacting serine/threonine-protein kinase 2 (Homo sapiens) (UniProt O43353); experiment: Inhibition of RIPK2 (unknown origin) at 1 uM
[31] = Oral bioavailability in mouse at 5 mg/kg by LC-MS/MS analysis; type: ADME, organism-based; conditions: in vivo
[32] = molecular target: Serine/threonine-protein kinase PLK1 (Homo sapiens) (UniProt P53350); experiment: Inhibition of PLK1 (unknown origin) at 1 uM
[33] = molecular target: Mitogen-activated protein kinase kinase kinase kinase 5 (Homo sapiens) (UniProt Q9Y4K4); experiment: Inhibition of KHS1 (unknown origin) at 1 uM
Blood = experiment: Inhibition of IgE-stimulated CD63 expression in human whole blood
[34] = molecular target: MAP/microtubule affinity-regulating kinase 3 (Homo sapiens) (UniProt P27448); experiment: Inhibition of MARK3 (unknown origin) at 1 uM
[35] = molecular target: Mitogen-activated protein kinase kinase kinase 10 (Homo sapiens) (UniProt Q02779); experiment: Inhibition of MLK2 (unknown origin) at 1 uM
[36] = molecular target: Dual specificity tyrosine-phosphorylation-regulated kinase 1A (Homo sapiens) (UniProt Q13627); experiment: Inhibition of DYRK1A (unknown origin) at 1 uM
[37] = molecular target: Bone morphogenetic protein receptor type-1A (Homo sapiens) (UniProt P36894); experiment: Inhibition of BMPR1A (unknown origin) at 1 uM
[38] = molecular target: Leucine-rich repeat serine/threonine-protein kinase 2 (Homo sapiens) (UniProt Q5S007); experiment: Inhibition of LRRK2 (unknown origin) at 1 uM
[39] = molecular target: Serine/threonine-protein kinase pim-1 (Homo sapiens) (UniProt P11309); experiment: Inhibition of PIM1 (unknown origin) at 1 uM
[40] = molecular target: Mitogen-activated protein kinase kinase kinase kinase 4 (Homo sapiens) (UniProt O95819); experiment: Inhibition of MAP4K4 (unknown origin) at 1 uM
[41] = molecular target: Macrophage colony-stimulating factor 1 receptor (Homo sapiens) (UniProt P07333); experiment: Inhibition of CSF1R (unknown origin) at 1 uM
[42] = molecular target: Insulin receptor-related protein (Homo sapiens) (UniProt P14616); experiment: Inhibition of IRR (unknown origin) at 1 uM
[43] = molecular target: Mitogen-activated protein kinase 14 (Homo sapiens) (UniProt Q16539); experiment: Inhibition of p38alpha (unknown origin) at 1 uM
[44] = molecular target: Wee1-like protein kinase (Homo sapiens) (UniProt P30291); experiment: Inhibition of WEE1 (unknown origin) at 1 uM

Protein kinase C epsilon type (Homo sapiens), sequence (Q02156 whole entry): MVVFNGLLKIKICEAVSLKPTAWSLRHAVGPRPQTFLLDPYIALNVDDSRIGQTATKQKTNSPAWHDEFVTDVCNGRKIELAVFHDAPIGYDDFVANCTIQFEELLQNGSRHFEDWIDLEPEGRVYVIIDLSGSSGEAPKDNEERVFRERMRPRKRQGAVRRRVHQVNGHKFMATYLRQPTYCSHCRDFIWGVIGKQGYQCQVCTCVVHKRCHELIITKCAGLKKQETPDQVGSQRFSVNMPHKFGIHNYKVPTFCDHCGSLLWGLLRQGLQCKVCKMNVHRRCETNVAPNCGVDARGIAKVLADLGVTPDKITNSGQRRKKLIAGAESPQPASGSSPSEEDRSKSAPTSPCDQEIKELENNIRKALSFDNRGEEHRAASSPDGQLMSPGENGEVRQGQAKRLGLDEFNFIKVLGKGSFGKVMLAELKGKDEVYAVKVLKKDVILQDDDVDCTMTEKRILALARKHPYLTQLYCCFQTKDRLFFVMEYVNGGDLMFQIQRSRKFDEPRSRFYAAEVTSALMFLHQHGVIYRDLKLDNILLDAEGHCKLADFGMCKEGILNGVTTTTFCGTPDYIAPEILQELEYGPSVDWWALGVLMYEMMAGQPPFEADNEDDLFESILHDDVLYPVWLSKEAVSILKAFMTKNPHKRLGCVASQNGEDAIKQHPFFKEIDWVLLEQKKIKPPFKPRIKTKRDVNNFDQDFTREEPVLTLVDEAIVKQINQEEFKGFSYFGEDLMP
Insulin receptor-related protein (Homo sapiens), sequence (P14616 27-742 limits assumed): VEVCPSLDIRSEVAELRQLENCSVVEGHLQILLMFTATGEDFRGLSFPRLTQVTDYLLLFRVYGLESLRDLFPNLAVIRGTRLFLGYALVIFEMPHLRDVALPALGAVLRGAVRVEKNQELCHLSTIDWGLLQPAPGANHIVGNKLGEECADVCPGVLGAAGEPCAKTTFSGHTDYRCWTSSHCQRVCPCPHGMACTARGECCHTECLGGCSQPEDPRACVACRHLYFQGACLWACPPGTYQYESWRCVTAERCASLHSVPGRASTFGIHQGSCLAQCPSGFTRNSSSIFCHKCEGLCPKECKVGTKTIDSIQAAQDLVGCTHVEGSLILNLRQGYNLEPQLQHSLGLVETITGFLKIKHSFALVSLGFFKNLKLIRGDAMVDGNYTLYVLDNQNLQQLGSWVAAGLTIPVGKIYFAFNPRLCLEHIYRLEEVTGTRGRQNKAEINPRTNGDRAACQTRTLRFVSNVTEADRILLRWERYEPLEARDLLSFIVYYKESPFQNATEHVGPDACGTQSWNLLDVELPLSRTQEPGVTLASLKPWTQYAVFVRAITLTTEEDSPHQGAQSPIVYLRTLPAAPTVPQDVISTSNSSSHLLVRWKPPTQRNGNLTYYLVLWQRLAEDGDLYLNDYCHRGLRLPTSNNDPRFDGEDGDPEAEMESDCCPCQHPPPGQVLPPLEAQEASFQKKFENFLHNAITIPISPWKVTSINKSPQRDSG
Insulin receptor-related protein (Homo sapiens), sequence (P14616 747-1297 limits assumed): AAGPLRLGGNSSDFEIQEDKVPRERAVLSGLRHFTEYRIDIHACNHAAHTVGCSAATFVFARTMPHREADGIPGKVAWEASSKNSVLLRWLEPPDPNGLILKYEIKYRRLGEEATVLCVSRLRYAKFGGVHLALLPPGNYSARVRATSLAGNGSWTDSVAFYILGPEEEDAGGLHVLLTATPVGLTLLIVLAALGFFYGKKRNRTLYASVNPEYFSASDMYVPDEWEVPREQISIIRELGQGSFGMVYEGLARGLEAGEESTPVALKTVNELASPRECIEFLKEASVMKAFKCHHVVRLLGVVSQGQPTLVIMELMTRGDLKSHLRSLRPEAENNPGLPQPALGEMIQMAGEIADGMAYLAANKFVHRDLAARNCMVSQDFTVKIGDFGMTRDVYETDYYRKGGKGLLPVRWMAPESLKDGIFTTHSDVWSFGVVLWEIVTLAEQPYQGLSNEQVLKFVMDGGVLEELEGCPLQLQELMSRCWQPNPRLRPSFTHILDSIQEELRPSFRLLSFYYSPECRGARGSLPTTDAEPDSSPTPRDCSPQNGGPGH
Serine/threonine-protein kinase DCLK2 (Homo sapiens), sequence (Q8N568 whole entry): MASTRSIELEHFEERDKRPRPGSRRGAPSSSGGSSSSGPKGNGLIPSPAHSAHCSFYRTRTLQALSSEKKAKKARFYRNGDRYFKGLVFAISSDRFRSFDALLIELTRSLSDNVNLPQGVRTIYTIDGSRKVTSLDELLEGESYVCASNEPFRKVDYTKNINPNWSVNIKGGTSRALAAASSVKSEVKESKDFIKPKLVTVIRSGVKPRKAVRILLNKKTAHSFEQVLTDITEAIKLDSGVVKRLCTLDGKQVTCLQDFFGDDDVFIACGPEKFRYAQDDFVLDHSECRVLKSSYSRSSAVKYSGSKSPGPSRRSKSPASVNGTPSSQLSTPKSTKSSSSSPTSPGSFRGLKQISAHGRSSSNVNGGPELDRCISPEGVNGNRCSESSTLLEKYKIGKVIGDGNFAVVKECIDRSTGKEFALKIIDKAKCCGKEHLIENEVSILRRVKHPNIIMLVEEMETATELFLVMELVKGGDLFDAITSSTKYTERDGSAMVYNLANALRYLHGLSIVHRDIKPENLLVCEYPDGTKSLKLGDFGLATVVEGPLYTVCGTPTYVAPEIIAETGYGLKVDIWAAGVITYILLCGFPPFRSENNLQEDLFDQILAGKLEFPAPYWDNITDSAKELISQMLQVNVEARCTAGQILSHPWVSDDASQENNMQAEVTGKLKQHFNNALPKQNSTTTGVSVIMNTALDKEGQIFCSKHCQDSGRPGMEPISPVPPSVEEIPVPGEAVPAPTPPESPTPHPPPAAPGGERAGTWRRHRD
Proto-oncogene tyrosine-protein kinase receptor Ret (Homo sapiens), sequence (P07949 whole entry): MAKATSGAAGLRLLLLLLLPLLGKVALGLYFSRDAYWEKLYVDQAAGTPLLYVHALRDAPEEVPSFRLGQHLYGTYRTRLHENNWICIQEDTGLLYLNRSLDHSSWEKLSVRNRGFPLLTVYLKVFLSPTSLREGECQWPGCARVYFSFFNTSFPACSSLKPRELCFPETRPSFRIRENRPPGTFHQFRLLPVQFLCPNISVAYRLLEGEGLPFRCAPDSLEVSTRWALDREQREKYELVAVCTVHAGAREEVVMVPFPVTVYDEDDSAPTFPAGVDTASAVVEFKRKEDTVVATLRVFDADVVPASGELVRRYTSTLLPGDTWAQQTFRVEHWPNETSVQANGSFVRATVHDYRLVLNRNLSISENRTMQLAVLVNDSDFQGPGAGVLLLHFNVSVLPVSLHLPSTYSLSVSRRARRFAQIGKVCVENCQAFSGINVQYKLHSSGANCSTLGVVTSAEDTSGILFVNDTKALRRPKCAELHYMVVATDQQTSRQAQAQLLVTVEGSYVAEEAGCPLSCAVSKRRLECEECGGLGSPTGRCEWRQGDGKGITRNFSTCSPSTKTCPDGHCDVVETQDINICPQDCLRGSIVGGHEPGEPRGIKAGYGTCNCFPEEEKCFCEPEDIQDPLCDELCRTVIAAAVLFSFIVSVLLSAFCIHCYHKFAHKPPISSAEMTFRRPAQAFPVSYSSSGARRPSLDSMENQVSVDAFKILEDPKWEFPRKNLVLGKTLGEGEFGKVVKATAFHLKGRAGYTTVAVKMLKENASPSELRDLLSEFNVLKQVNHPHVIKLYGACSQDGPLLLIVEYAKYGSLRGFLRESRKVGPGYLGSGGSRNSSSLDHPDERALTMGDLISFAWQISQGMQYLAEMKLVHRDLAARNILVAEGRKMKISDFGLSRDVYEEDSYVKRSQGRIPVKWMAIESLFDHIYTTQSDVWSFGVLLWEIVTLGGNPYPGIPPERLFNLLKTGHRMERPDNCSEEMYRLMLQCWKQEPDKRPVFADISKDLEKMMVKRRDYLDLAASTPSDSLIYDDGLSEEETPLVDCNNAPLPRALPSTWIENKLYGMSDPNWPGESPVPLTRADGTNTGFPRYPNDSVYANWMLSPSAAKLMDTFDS
Serine/threonine-protein kinase PLK2 (Homo sapiens), sequence (Q9NYY3 whole entry, looked up): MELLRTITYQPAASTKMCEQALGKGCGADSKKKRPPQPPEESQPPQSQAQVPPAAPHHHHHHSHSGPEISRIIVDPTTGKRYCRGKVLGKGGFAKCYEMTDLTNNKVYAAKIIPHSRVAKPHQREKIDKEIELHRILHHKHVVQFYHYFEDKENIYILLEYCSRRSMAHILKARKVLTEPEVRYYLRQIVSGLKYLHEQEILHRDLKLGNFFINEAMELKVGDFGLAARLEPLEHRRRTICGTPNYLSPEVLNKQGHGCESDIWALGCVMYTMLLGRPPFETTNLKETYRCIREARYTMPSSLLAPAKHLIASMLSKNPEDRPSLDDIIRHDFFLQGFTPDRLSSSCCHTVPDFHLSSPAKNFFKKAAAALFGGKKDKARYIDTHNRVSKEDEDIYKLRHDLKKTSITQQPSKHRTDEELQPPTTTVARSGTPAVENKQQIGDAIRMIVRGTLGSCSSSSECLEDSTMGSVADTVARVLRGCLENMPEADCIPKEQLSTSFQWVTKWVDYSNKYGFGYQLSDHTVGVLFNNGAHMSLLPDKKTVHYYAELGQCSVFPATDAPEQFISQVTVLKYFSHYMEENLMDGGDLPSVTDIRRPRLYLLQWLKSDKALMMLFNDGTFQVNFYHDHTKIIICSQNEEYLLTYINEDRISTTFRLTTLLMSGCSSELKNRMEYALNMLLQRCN
Serine/threonine-protein kinase Nek6 (Homo sapiens), sequence (Q9HC98 whole entry): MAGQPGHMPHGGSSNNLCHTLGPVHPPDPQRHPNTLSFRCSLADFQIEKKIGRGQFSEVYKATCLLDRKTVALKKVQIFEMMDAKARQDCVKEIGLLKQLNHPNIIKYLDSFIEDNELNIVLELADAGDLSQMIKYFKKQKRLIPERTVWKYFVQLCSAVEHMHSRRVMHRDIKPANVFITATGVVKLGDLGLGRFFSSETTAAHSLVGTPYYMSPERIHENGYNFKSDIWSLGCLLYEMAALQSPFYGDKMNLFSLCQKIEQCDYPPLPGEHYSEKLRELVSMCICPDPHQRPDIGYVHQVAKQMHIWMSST

inhibition [1]: 4.3%
inhibition [2]: -0.4%
inhibition [3]: -2%
inhibition [4]: 4.5%
inhibition [5]: 5.3%
inhibition [6]: 14.9%
inhibition [9]: 2.7%
inhibition [10]: 1.9%
inhibition [12]: -0.8%
inhibition [13]: -6.9%
inhibition [14]: -2.4%
inhibition [15]: 5.8%
inhibition [16]: 5.3%
inhibition [17]: 5.6%
IC50 [18]: > 10 µM
inhibition [19]: -1.2%
inhibition [20]: 8%
inhibition [21]: -6.8%
bioavailability [22]: 65%
inhibition [23]: 8.6%
inhibition [24]: 13.7%
inhibition [25]: 2%
CLH (Liver microsome): 0.36 L/h/kg
inhibition [26]: 5.8%
inhibition [27]: -8%
inhibition [28]: 11.3%
inhibition [29]: -0.9%
inhibition [30]: -0.4%
bioavailability [31]: 34%
inhibition [32]: 6%
inhibition [33]: 17.3%
EC50 (Blood): 0.257 µM
inhibition [34]: -5.4%
inhibition [35]: 7.3%
inhibition [36]: 4.8%
inhibition [37]: -4.5%
inhibition [38]: 4.7%
inhibition [39]: 4.5%
inhibition [40]: 3%
inhibition [41]: 13%
inhibition [42]: 2.3%
inhibition [43]: 1%
inhibition [44]: -1.8%
SMILES: Cc1c(-c2cc(Nc3cc4n(n3)CCN(C)C4)c(=O)[nH]n2)ccc(F)c1NC(=O)c1cc2ccccc2s1
EC50 [7]: > 5 µM
Activity (Salmonella typhimurium [8]): Non-toxic
Activity (Salmonella typhimurium [11]): Non-toxic
